Nine compounds from patent publication US20110319392A1, “Thiazole Sulfonamide And Oxazole Sulfonamide Kinase Inhibitors” (priority 2009, published 2011) can be followed below.

One test concerns SK-MEL-3 tumor cells. Nature of the test: Cell growth inhibition assay (CellTiter-Glo), SK-MEL-3. The test is classed as cell-based, Human. The conditions noted are these: Homo sapiens, SK-MEL3. An outline of the steps: (§1)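 Cells seeded at 500/well (HN5 and HT-29 in high-glucose DMEM/10% FBS; A375P F11s in RPMI/10% FBS with pyruvate; SK-MEL-3 in McCoy's 5A/15% FBS), then exposed next day to 1:3 serial compound dilutions (0.2% DMSO) for 3 days at 37° C. CellTiter-Glo luminescence measured ATP; IC50 derived by 4-parameter fit.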
A general note: Cellular ATP, detected with luciferase, serves as a proxy for viable cell number.

In a further test the test system is SK-MEL-28 tumor cells. Nature of the test: Cell growth inhibition assay (CellTiter-Glo), SK-MEL-28. Type of test: cell-based, Human. The note with it: Homo sapiens, SK-MEL-28, 72 h; 3 days incubation. An outline of the steps: (§2)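 Readout was CellTiter-Glo luminescence (total ATP, surrogate for cell number) after 3-day exposure at 37° C, 5% CO2 to 1:3 serial compound dilutions in 0.2% final DMSO. Seeding was 500 cells/well; IC50 derived by 4-parameter fit relative to vehicle-treated wells.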

A further test deals with HN5 tumor cells. As to the kind of experiment: Cell growth inhibition assay (CellTiter-Glo), HN5. Type of test: cell-based, Human. The note with it: Homo sapiens, 72 h; 3 days incubation. The method, boiled down:
as §1

The target of a further test is B-Raf (Homo sapiens, UniProt P15056). Nature of the test: B-Raf Accelerated MEK ATPase assay (BRAMA), Method A or B. The test is classed as biochemical. The note with it: Method B: final MEK 150 nM, single end point read. An outline of the steps: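 ADP production, initiated by catalytic activated Raf with unphosphorylated MEK, is followed by NADH oxidation through a PK/LDH coupled system. Method B differs from the kinetic Method A by a single end-point read and 150 nM final MEK.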
B-Raf, sequence (P15056 whole entry): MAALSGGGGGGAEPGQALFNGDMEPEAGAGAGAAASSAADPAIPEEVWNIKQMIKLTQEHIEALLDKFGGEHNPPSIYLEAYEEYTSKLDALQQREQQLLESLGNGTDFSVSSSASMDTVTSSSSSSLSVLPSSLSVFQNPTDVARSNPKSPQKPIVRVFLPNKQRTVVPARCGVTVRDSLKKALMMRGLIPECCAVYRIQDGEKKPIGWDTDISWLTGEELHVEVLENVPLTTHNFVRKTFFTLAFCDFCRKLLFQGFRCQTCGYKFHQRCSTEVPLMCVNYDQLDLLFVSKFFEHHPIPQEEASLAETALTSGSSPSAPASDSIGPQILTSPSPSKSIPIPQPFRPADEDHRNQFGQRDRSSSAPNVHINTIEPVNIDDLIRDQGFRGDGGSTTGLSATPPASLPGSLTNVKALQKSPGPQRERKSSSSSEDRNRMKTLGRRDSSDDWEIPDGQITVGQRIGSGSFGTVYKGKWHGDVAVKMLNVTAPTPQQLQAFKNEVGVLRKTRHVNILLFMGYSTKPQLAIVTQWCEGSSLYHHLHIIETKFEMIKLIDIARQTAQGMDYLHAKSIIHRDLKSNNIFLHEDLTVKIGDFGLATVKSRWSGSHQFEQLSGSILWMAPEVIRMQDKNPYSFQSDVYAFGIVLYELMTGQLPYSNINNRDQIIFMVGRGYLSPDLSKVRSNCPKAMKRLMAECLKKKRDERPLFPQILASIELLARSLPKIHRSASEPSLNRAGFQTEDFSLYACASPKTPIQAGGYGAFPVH

The next test relates to Colo205 tumor cells. As to the kind of experiment: Cell growth inhibition assay (CellTiter-Glo), Colo205. The test is classed as cell-based, Human. The conditions noted are these: Homo sapiens, COLO 205, 72 h; 3 days incubation. The method, boiled down:
as §2

The next test relates to HT-29 tumor cells. Nature of the test: Cell growth inhibition assay (CellTiter-Glo), HT-29. The test is classed as cell-based, Human. The note with it: Homo sapiens. The method, boiled down: as §1
In another test the test system is BT474 tumor cells. As to the kind of experiment: Cell growth inhibition assay (CellTiter-Glo), BT474. Type of test: cell-based, Human. The conditions noted are these: Homo sapiens, BT-474, 72 h, 3 days incubation.
The next test has as its system A375P F11s tumor cells. Nature of the test: Cell growth inhibition assay (CellTiter-Glo), A375P F11s. The test is classed as cell-based, Human. The conditions noted are these: Homo sapiens. An outline of the steps:
as §1

Molecules are shown by their SMILES.

Consider `Nc1nc(-c2cccc(NS(=O)(=O)c3c(F)cccc3F)c2)c(-c2ccnc(Nc3ccc(N4CCOCC4)nc3)n2)s1` [Example 62], for which the IC50 (in general, the midpoint of a concentration-inhibition curve) in the test on SK-MEL-3 tumor cells is under 100 nM; in the test with SK-MEL-28 tumor cells, under 100 nM; in the test on HN5 tumor cells it was 100 to 1000 nM; against B-Raf, under 100 nM; in the test on Colo205 tumor cells it was under 100 nM; in the test on HT-29 tumor cells it was 100 to 1000 nM. In addition, the values for the IC50 in the test with BT474 tumor cells and with A375P F11s tumor cells were over 1000 nM and under 100 nM, respectively.
Take `CC(=O)N1CCN(c2ccc(Nc3nccc(-c4oc(C(C)C)nc4-c4cccc(NS(=O)(=O)c5c(F)cccc5F)c4)n3)cn2)CC1` [Example 56]: the concentration for half-maximal inhibition (IC50) in the test with SK-MEL-3 tumor cells was under 100 nM; with SK-MEL-28 tumor cells, under 100 nM; in the test with HN5 tumor cells, over 1000 nM; against B-Raf, under 100 nM; with Colo205 tumor cells it was under 100 nM; with HT-29 tumor cells, 100 to 1000 nM. The IC50 is over 1000 nM in the test on BT474 tumor cells and 100 to 1000 nM in the test on A375P F11s tumor cells.
Take `CN1CCC(c2nc(-c3ccc(F)c(NS(=O)(=O)c4c(F)cccc4F)c3)c(-c3ccnc(Nc4ccc(N5CCOCC5)nc4)n3)s2)CC1` [Example 106]: the IC50 in the test with SK-MEL-3 tumor cells is under 100 nM; with SK-MEL-28 tumor cells, 100 to 1000 nM; in the test with HN5 tumor cells it was 100 to 1000 nM; against B-Raf, under 100 nM; in the test with Colo205 tumor cells, 100 to 1000 nM; in the test with HT-29 tumor cells, 100 to 1000 nM. Also, the IC50 in the test on BT474 tumor cells was over 1000 nM; in the test with A375P F11s tumor cells, under 100 nM.
Regarding `CCNc1nc(-c2ccc(F)c(NS(=O)(=O)c3c(F)cccc3F)c2)c(-c2ccnc(Nc3ccc(N4CCOCC4)nc3)n2)s1` [Example 166], the half-maximal inhibitory concentration (IC50) in the test with SK-MEL-3 tumor cells is 100 to 1000 nM; with SK-MEL-28 tumor cells, under 100 nM; in the test with HN5 tumor cells it was 100 to 1000 nM; at B-Raf, under 100 nM; in the test with Colo205 tumor cells it was 100 to 1000 nM; in the test on HT-29 tumor cells, 100 to 1000 nM. Moreover, the IC50 with BT474 tumor cells is over 1000 nM; in the test on A375P F11s tumor cells, 100 to 1000 nM.
With `CC(C)c1nc(-c2cncc(NS(=O)(=O)c3c(F)cccc3F)c2)c(-c2ccnc(Nc3ccc(N4CCOCC4)nc3)n2)s1` [Example 47], the IC50 is under 100 nM in the test on SK-MEL-3 tumor cells; under 100 nM in the test on SK-MEL-28 tumor cells; over 1000 nM in the test on HN5 tumor cells; under 100 nM against B-Raf; under 100 nM in the test with Colo205 tumor cells; 100 to 1000 nM with HT-29 tumor cells. Also, the results for the IC50 in the test with BT474 tumor cells and in the test on A375P F11s tumor cells were over 1000 nM and under 100 nM, respectively.
With `Cc1nc(-c2cccc(NS(=O)(=O)c3c(F)cccc3F)c2)c(-c2ccnc(Nc3ccc(N4CCOCC4)nc3)n2)s1` [Example 133], the IC50 is under 100 nM with SK-MEL-3 tumor cells; under 100 nM in the test with SK-MEL-28 tumor cells; 100 to 1000 nM with HN5 tumor cells; under 100 nM on B-Raf; under 100 nM with Colo205 tumor cells; under 100 nM in the test with HT-29 tumor cells. The IC50 is over 1000 nM with BT474 tumor cells and under 100 nM in the test on A375P F11s tumor cells.
With `CC(C)c1nc(-c2ccc(F)c(NS(=O)(=O)c3c(F)cccc3F)c2)c(-c2ccnc(Nc3ccncc3)n2)s1` [Example 102], the IC50 with SK-MEL-3 tumor cells was 100 to 1000 nM; in the test on SK-MEL-28 tumor cells, 100 to 1000 nM; in the test with HN5 tumor cells, over 1000 nM; on B-Raf, under 100 nM; in the test on Colo205 tumor cells it was 100 to 1000 nM; with HT-29 tumor cells it was 100 to 1000 nM. Besides, the half-inhibitory concentration (IC50) in the test with BT474 tumor cells is over 1000 nM; in the test with A375P F11s tumor cells, 100 to 1000 nM.
For the compound `CC(=O)N1CCN(c2ccc(Nc3nccc(-c4sc(C(C)C)nc4-c4cccc(NS(=O)(=O)c5cccc(C(F)(F)F)c5)c4)n3)cn2)CC1` [Example 70], the IC50 was 100 to 1000 nM with SK-MEL-3 tumor cells; 100 to 1000 nM with SK-MEL-28 tumor cells; over 1000 nM in the test on HN5 tumor cells; 100 to 1000 nM against B-Raf; 100 to 1000 nM in the test on Colo205 tumor cells; over 1000 nM in the test with HT-29 tumor cells. The half-maximal inhibitory concentration (IC50) in the test on BT474 tumor cells was over 1000 nM; in the test with A375P F11s tumor cells, 100 to 1000 nM.
As for `Cc1cc(N2CCN(CCS(C)(=O)=O)CC2)ncc1Nc1nccc(-c2sc(C(C)C)nc2-c2cccc(NS(=O)(=O)c3c(F)cccc3F)c2)n1` [Example 131], the IC50 in the test on SK-MEL-3 tumor cells was under 100 nM; in the test on SK-MEL-28 tumor cells, under 100 nM; in the test on HN5 tumor cells, over 1000 nM; on B-Raf it was under 100 nM; in the test with Colo205 tumor cells, under 100 nM; in the test on HT-29 tumor cells, under 100 nM. The half-maximal inhibitory concentration (IC50) with BT474 tumor cells was over 1000 nM; with A375P F11s tumor cells it was under 100 nM.
